Legend:
[1] = tested on: Peripheral blood mononuclear cells (PBMCs); assay: Cellular viability assay (CellTiter-Glo), dose curve, FIG. 9; type: cell-based, human; details: PBMCs of healthy donors and patients (AML, multiple myeloma, B cell lymphoma, Hodgkin's lymphoma, CLL), 72 hours
Experimental: Relative viability of Peripheral blood mononuclear cells (PBMCs) after treatment with the d9A1-2 molecule PBMCs were isolated from healthy donors and patients with acute myeloid leukemia, multiple myeloma, B cell lymphoma and Hodgkin’s lymphoma, chronic lymphocytic leukeumia and treated with a dose curve of d9A1-2. Viability was assayed using the CellTiter-Glo assay, 72 hours post treatment.
Peripheral blood mononuclear cells (PBMCs) were isolated using Lymphoprep (Stem Cell Technologies) from healthy donors and patients with acute myeloid leukemia, multiple myeloma, B cell lymphoma, Hodgkin’s lymphoma, chronic lymphocytic leukeumia. For comparison of different samples, compounds were transferred on black 384-well plates using an acoustic liquid handler (Echo, Labcyte). Cells were seeded in these plates at densities of 20,000 cells per well in RPMI media (Gibco), supplemented with 10% fetal calf serum (Gibco). Viability was measured after 72 hours using the CellTiter-Glo assay (Promega) on a plate reader (SpectraMax i3x, Molecular Probes). All measurements were done in technical quadruplicates. Toxicity achieved by treatment with d9A1-2 was normalized to the reference controls. Dose response fitting curves were obtained and plotted using GraphPad Prism V8. Data is presented as mean +/- SD.

Strep/HA SLC9A1 = biological target: T1, Strep/HA SLC9A1 (Homo sapiens, UniProt P19634); assay: Selectivity across SLC9 family: degradation of exogenous Strep/HA SLC9A1; type: cell-based; details: HAP1; 250 or 750 nM; 16 hours
T1 construct: expressed in transfected cells; host or cells: HAP1 (lentiviral, pRRL Strep-HA; cDNA synthesized by Genescript)
Experimental: (§1) (E) Selectivity of d9A1-2 was tested across HAP1 cell lines expressing Strep/HASLC9A1, 9A4, 9A5, 9A8, 9A2, 9B2, 9A6, 9A9, and 9A3. Cells were treated with varying concentrations of d9A1-2 for 16 hours, after which degradation of the exogenous SLCs was monitored.
(§2) SLC1A5, SLC2A1, SLC2A3, SLC16A1, SLC38A1, SLC38A2 were obtained as gateway-compatible pENTR/pDONR vectors from the Harvard PlasmID Repository. SLC39A7 was obtained from Dharmacon, GE Healthcare. The following vectors were synthesized by Genescript: SLC4A4, SLC7A3, SLC38A9, SLC25A1, SLC9A1, SLC9A2, SLC9A3, SLC9A4, SLC9A5, SLC9A6, SLC9A7, SLC9A8, and SLC9B2. SLC30A9, SLC33A1, SLC35B2, SLC25A26, and MTCH2 were a gift from the RESOLUTE consortium. cDNAs were transferred into gateway-compatible lentiviral expression vectors: pLX305 dTAG vectors (Addgene #91797/8) or pRRL Strep-HA (described previously43, EF1a promotor driven expression) using LR recombination (ThermoFisher Scientific). […]
(§3) For immunoblotting, whole cell extracts were prepared using RIPA lysis buffer (25 mM Tris/HCl pH 7.6, 150 mM NaCl, 1% NP-40, 1% sodium deoxycholate, 0.1% SDS, EDTA-free protease inhibitor (Roche) and phosphatase inhibitors 2+3 (Sigma- Aldrich)). […] Protein extracts were quantified and normalized using the BCA assay (Thermo Scientific). […]

Strep/HA SLC9B2 = biological target: T2, Strep/HA SLC9B2 (Homo sapiens, UniProt Q86UD5); assay: Selectivity across SLC9 family: degradation of exogenous Strep/HA SLC9B2; type: cell-based; details: HAP1; 250 or 750 nM; 16 hours
T2 construct: expressed in transfected cells; host or cells: HAP1 (lentiviral, pRRL Strep-HA; cDNA synthesized by Genescript)
Experimental: as §1, §2, §3

Strep/HA SLC9A5 = biological target: T3, Strep/HA SLC9A5 (Homo sapiens, UniProt Q14940); assay: Selectivity across SLC9 family: degradation of exogenous Strep/HA SLC9A5; type: cell-based; details: HAP1; 250 or 750 nM; 16 hours
T3 construct: expressed in transfected cells; host or cells: HAP1 (lentiviral, pRRL Strep-HA; cDNA synthesized by Genescript)
Experimental: as §1, §2, §3

Strep/HA SLC9A6 = biological target: T4, Strep/HA SLC9A6 (Homo sapiens, UniProt Q92581); assay: Selectivity across SLC9 family: degradation of exogenous Strep/HA SLC9A6; type: cell-based; details: HAP1; 250 or 750 nM; 16 hours
T4 construct: expressed in transfected cells; host or cells: HAP1 (lentiviral, pRRL Strep-HA; cDNA synthesized by Genescript)
Experimental: as §1, §2, §3

Strep/HA SLC9A4 = biological target: T5, Strep/HA SLC9A4 (Homo sapiens, UniProt Q6AI14); assay: Selectivity across SLC9 family: degradation of exogenous Strep/HA SLC9A4; type: cell-based; details: HAP1; 250 or 750 nM; 16 hours
T5 construct: expressed in transfected cells; host or cells: HAP1 (lentiviral, pRRL Strep-HA; cDNA synthesized by Genescript)
Experimental: as §1, §2, §3

dTAG-HA SLC2A1 = biological target: T6, dTAG-HA SLC2A1 (Homo sapiens, UniProt P11166+Q96SW2); assay: Targeted degradation of dTAG-tagged SLC2A1 (western blot); type: cell-based; details: HAP1, 0.5 µM, 24, 48 or 72 hours
T6 construct: expressed in transfected cells
Experimental: (C)HAP1 cells expressing dTAG-HA SLC1A5, 2A3, 30A9, 35B2, MTCH2, and 33A1 were treated for 24 hours with 0.5 µM of dTAG7 or dTAG13, as indicated. HAP1 cells expressing dTAG-HA SLC2A1 and 16A1 were treated for 24 hrs with 0.5 µM of dTAG7. HAP1 cell lines expressing dTAG-HA SLC39A7, dTAG-HA SLC4A4, and SLC7A3-dTAG-HA were treated for 48 hrs with 0.5 µM of dTAG13.
SLC1A5, SLC2A1, SLC2A3, SLC16A1, SLC38A1, SLC38A2 were obtained as gateway-compatible pENTR/pDONR vectors from the Harvard PlasmID Repository. SLC39A7 was obtained from Dharmacon, GE Healthcare. The following vectors were synthesized by Genescript: SLC4A4, SLC7A3, SLC38A9, SLC25A1, SLC9A1, SLC9A2, SLC9A3, SLC9A4, SLC9A5, SLC9A6, SLC9A7, SLC9A8, and SLC9B2. […]
as §3
SLCs were ectopically expressed as fusions to a mutated FKBP domain, also known as the dTAG system. […]

T5 sequence (Q6AI14 whole entry): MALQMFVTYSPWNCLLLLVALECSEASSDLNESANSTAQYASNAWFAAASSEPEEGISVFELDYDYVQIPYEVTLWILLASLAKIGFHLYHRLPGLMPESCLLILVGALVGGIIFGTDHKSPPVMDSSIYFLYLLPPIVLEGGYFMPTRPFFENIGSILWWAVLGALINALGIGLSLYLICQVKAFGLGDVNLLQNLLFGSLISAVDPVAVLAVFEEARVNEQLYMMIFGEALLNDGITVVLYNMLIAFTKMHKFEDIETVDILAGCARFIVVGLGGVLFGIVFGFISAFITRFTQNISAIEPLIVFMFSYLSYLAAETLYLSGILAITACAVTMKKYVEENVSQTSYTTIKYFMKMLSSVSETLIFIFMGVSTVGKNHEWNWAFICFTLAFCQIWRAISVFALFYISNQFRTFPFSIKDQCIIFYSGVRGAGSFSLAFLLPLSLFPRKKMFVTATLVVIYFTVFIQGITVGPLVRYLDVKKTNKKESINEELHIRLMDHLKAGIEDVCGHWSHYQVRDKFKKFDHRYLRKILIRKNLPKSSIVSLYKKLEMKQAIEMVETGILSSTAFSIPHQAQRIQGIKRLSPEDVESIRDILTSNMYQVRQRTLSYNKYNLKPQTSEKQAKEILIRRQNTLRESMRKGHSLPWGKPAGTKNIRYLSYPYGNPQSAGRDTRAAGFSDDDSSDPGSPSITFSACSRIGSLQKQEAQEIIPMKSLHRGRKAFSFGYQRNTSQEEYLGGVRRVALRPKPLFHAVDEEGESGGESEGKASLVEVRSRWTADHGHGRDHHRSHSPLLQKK
T6 sequence (P11166 with tags, fused parts or gaps): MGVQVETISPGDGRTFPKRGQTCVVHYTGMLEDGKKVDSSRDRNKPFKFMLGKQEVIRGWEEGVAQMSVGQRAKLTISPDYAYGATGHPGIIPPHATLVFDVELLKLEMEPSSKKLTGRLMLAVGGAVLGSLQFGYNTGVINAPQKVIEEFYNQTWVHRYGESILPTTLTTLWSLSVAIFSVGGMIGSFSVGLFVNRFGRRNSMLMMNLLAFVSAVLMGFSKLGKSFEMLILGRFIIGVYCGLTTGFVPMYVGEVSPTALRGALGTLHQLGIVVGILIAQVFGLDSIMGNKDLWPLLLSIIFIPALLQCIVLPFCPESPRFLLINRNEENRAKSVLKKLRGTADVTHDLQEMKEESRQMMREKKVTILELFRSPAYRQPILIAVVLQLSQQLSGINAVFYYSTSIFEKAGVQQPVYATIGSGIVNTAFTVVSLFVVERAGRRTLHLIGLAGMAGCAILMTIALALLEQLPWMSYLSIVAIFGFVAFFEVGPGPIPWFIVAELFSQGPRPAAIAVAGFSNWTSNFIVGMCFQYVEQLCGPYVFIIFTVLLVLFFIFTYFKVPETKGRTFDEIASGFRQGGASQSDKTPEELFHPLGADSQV
T6 sequence (Q96SW2 whole entry): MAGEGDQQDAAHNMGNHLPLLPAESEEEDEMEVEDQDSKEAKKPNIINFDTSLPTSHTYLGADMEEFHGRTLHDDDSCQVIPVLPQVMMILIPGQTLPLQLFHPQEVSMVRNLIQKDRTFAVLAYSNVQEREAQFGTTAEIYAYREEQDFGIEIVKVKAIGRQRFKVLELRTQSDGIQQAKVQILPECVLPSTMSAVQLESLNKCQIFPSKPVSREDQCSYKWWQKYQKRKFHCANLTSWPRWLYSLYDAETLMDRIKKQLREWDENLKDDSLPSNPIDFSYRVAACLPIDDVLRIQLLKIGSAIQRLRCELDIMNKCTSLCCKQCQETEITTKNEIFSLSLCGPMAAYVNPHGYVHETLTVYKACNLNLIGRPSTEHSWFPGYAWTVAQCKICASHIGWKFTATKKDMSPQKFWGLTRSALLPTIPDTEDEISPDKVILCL
T6 sequence (Q16531 whole entry partner): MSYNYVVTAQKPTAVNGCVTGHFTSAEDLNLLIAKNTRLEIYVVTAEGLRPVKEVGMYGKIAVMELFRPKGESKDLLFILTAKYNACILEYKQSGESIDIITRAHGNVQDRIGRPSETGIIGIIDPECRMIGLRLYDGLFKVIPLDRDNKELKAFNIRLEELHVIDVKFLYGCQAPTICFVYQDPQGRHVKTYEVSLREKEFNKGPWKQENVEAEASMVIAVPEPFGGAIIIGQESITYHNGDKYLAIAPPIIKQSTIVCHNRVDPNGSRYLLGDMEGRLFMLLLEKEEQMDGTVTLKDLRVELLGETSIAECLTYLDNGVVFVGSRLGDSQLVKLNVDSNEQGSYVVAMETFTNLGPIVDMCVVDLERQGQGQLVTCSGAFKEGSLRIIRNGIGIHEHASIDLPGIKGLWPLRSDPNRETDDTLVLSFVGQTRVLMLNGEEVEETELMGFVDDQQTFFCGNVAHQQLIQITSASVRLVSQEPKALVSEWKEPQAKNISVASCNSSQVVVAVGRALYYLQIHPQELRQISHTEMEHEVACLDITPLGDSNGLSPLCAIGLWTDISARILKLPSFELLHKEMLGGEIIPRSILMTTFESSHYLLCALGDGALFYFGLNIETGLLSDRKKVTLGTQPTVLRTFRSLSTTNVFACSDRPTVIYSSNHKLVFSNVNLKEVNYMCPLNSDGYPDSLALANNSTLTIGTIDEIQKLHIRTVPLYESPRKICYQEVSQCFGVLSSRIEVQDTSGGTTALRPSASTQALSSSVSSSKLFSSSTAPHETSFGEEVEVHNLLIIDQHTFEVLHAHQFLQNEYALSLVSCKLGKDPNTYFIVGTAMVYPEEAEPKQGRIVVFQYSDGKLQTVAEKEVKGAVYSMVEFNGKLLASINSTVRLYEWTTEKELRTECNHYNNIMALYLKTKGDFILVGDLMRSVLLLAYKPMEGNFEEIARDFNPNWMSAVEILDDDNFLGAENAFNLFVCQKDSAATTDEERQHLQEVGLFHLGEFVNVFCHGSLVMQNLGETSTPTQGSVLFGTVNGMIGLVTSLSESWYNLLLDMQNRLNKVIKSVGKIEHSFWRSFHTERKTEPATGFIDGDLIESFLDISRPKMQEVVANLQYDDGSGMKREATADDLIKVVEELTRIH
T3 sequence (Q14940 whole entry): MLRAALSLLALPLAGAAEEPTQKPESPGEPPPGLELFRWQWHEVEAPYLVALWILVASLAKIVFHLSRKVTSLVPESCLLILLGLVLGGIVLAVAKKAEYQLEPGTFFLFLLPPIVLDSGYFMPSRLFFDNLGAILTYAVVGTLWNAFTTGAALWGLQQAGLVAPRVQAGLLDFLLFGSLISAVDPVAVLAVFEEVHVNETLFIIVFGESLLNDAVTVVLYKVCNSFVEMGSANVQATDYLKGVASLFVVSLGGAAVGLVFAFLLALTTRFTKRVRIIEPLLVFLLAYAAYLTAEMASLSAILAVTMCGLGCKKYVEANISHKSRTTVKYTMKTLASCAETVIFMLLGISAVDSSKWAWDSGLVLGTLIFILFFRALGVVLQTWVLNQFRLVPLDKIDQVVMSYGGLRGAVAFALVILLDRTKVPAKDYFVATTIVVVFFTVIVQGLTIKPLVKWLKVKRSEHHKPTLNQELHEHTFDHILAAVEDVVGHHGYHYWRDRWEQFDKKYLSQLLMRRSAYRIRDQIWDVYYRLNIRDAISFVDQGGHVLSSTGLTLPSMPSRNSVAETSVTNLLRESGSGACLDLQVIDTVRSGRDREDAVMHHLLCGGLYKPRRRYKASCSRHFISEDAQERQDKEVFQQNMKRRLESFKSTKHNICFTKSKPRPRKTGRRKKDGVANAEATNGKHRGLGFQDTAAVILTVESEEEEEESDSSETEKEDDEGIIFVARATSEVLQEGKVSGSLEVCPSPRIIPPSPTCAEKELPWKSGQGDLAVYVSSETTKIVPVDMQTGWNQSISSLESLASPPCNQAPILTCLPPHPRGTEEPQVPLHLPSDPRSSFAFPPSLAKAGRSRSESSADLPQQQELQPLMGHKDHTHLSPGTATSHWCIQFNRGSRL
T2 sequence (Q86UD5 whole entry): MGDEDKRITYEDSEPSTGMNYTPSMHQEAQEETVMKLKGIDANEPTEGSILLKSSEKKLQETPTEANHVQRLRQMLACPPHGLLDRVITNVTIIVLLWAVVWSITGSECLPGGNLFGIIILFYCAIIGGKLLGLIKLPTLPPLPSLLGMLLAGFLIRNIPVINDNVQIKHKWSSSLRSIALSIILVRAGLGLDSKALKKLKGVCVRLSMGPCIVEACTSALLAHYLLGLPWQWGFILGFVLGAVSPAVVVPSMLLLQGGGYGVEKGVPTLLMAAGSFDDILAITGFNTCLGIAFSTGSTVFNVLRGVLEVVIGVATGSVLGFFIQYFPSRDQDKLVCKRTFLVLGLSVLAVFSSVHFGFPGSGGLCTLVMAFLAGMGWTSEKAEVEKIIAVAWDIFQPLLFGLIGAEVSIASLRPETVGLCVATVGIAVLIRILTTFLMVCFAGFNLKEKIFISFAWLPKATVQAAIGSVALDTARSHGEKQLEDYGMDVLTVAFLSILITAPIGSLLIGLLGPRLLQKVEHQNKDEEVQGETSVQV

SMILES | toxicity (relative viability) in patient versus healthy donor PBMCs [1] | degradation of exogenous SLC9A1 (Strep/HA SLC9A1) | abundance of exogenous SLC9B2 (Strep/HA SLC9B2) | abundance of exogenous SLC9A5 (Strep/HA SLC9A5) | abundance of exogenous SLC9A6 (Strep/HA SLC9A6) | degradation of exogenous SLC9A4 (Strep/HA SLC9A4) | reversibility of degradation of the target SLC (dTAG-HA SLC2A1)
Cc1cc(-c2ccc(C(=O)NCCOCCOCCOCCOCCNc3cccc4c3C(=O)N(C3CCC(=O)NC3=O)C4=O)cc2N2CCC(c3[nH]cnc3C)CC2)ccc1F (stereo not shown) [d9A1-2] | more toxic in patient samples, than in healthy donor samples | most efficient degradation | not significantly affected | not significantly affected | not significantly affected | prompted degradation | –
CC[C@H](C(=O)N1CCCC[C@H]1C(=O)O[C@H](CCc1ccc(OC)c(OC)c1)c1ccccc1OCC(=O)NCCCOCCOCCOCCCNC(=O)COc1cccc2c1C(=O)N(C1CCC(=O)NC1=O)C2=O)c1cc(OC)c(OC)c(OC)c1 (stereo partly shown) [dTAG7] | – | – | – | – | – | – | reversible degradation

— patent US20230241226A1, “COMPOUNDS FOR TARGETED DEGRADATION OF CARRIER PROTEINS AND USES THEREOF” (CeMM - Forschungszentrum für Molekulare Medizin GmbH, priority 2019, published 2023)
